Results from US8691210B2, “Methods and compositions for generating an immune response by inducing CD40 and pattern recognition receptors and adaptors thereof” (priority 2006, dated 2014).

B1: CD40L: CD40 ligand (Alexis Biochemicals) (protein)
chain: GDQNPQIAAHVISEASSKTTSVLQWAEKGYYTMSNNLVTLENGKQLTVKRQGLYYIYAQVTFCSNREASSQAPFIASLCLKSPGRFERILLRAANTHSSAKPCGQQSIHLGGVFELQPGASVFVNVTDPSQVSHGTGFTSFGLLKL

Legend:
[1] = tested on: Naive CD4+CD45RA+ T cells; assay: Polarization of naive T helper cells; format: cell-based, human; settings: tetanus toxoid-pulsed DCs, restimulation with TTp30
Text: Naïve CD4+CD45RA+ T-cells from HLA-DR11.5-positive donors (genotyped using FASTYPE HLA-DNA SSP typing kit; BioSynthesis, Lewisville, Tex.) were isolated by negative selection using naïve CD4+ T cell isolation kit (Miltenyi Biotec, Auburn, Calif.). T cells were stimulated with autologous DCs pulsed with tetanus toxoid (5 FU/ml) and stimulated with various stimuli at a stimulator to responder ratio of 1:10. After 7 days, T cells were restimulated with autologous DCs pulsed with the HLA-DR11.5-restricted helper peptide TTp30 and transduced with adenovector Ad-iCD40. Cells were stained with PE-anti-CD4 Ab (BD Biosciences), fixed and permeabilized using BD Cytofix/Cytoperm kit (BD Biosciences), then stained with hIFN-gamma mAb (eBioscience, San Diego, Calif.) and analyzed by flow cytometry. Supernatants were analyzed using human TH1/TH2 BD Cytometric Bead Array Flex Set on BD FACSArray Bioanalyzer (BD Biosciences).

[2] = tested on: human DCs; assay: Cytokine (IL-12p70, IL-6) ELISA of human DC culture supernatants; format: cell-based; settings: iCD40-DCs stimulated with the named TLR ligand
Description: Approximately 2×10^6 cells/ml were cultured in a 24-well dish and transduced with adenoviruses at 10,000 viral particle (vp)/cell (−160 MOI) for 90 min at 37° C. and 5% CO2. Immediately after transduction DCs were stimulated with MPL, FSL-1, Pam3CSK4 (InvivoGen, San Diego, Calif.), LPS (Sigma-Aldrich, St. Louis, Mo.), AP20187 (kind gift from ARIAD Pharmaceuticals, Cambridge, Mass.) or maturation cocktail (MC), containing 10 ng/ml TNF-alpha, 10 ng/ml IL-1beta, 150 ng/ml IL-6 (R&D Systems, Minneapolis, Minn.) and 1 micrograms/ml of PGE2 (Cayman Chemicals, Ann Arbor, Mich.). In T cell assays DCs were pulsed with 50 micrograms/ml of PSMA or MAGE 3 peptide 24 hours before and after adenoviral transduction.
Cell surface staining was done with fluorochrome-conjugated monoclonal antibodies (BD Biosciences, San Diego, Calif.). Cells were analyzed on a FACSCalibur cytometer (BD Biosciences, San Jose, Calif.). Cytokines were measured in culture supernatants using enzyme-linked immunosorbent assay kits for human IL-6 and IL-12p70 (BD Biosciences).

[3] = tested on: primary bone marrow-derived DCs (BMDCs); assay: iCD40 functionality in primary BMDCs (surface markers, intracellular IL-12 staining); format: cell-based, murine; settings: stimulation with LPS and CD40L
Text: A helper-dependent, […] adenoviral vector, named Ad-iCD40-GFP, was engineered to express both iCD40 and EGFP under the control of the CMV early/immediate promoter/enhancer. Ad-iCD40-GFP successfully transduced and expressed the iCD40 transgene, as well as the EGFP marker, in purified BMDCs (FIG. 11A,B). […] The effects of Ad-iCD40-GFP on BMDCs using intracellular cytokine staining to evaluate DC expression of the TH1-polarizing cytokine, IL-12 was then investigated. These findings confirmed numerous previous reports that an empty adenoviral vector can contribute to background fluorescence readings by stimulating the production of low levels of this cytokine. (FIG. 11D)^53. […] However, AP20187 exposure of these iCD40-expressing DCs managed to reproducibly overcome these cumulative effects to further increase the percentage of IL-12′ DCs.

[4] = tested on: BMDCs; assay: BMDC survival (GM-CSF deprivation, wortmannin); format: cell-based
Description: To further test the hypothesis that PI3K and Akt are common regulators for innate and acquired immune signal-mediated DC survival, various concentrations (0.05-5 μM) of PI3K inhibitor, wortmannin, in BMDCs treated with LPS or anti-CD40 were tested.
To more directly investigate the role of Akt in PI3K-mediated DC survival, a previously described constitutively active Akt (M-Akt) allele, consisting of full length Akt, targeted to intracellular membranes with a myristoylation-targeting sequence from c-Src^62 was used. […] Therefore, to test the possibility that the efficient lipid raft localization of Akt improve its functions, this construct was compared with several distinct deregulated Akt alleles, containing myristoylation-targeting sequences from Src family kinases Src, Fyn and Lck fused to AAkt. The pleckstrin homology (PH) domain (residues 1-102) was removed to further improve Akt activity when PI3K is limiting^64. […] Therefore, MF-ΔAkt was used in subsequent experiments. Moreover, for improved expression in BMDCs, replication-defective adenovirus, Ad-MF-ΔAkt, expressing functionally optimized Akt was generated. Consistently, Ad-MF-ΔAkt led to higher GSK3α/β phosphorylation in BMDCs, compared with Ad-M-Akt^62. […] Thus, functionally optimized Akt almost completely suppresses induction of DC death by PI3K (but not Src) inhibition. […]

[5] = tested on: human SOCS1; assay: Real time Q-PCR assay for human SOCS1 in DCs; format: cell-based
Text: Total RNA was purified and reverse transcribed with random hexamers using SuperScript II RTase (Invitrogen, Carlsbad, Calif.). mRNA levels were quantified in DCs by subjecting cDNA to TaqMan PCR analysis using the GeneAmp 5700 Sequence Detection System (Applied Biosystems, Foster City, Calif.). Pre-developed sequence detection reagents (Applied Biosystems) specific for human SOCS1 and 18S rRNA, including forward and reverse primers as well as a fluorogenic TaqMan FAM-labeled hybridization probe, were supplied as mixtures and were used at 1 microliter/20 microliter PCR. Samples were run in duplicates. The level of SOCS1 expression in each sample was normalized to the level of 18S rRNA from the same sample using the comparative 2-ΔΔCT method^21.

[6] = tested on: BMDCs; assay: In vitro serum-starvation DC survival assay (propidium iodide); format: cell-based, murine; settings: relative to non-transduced DCs treated with CD40L or untreated BMDCs
Text: In addition to DC activation state, DC longevity is another critical variable that influences the generation of T cell-dependent immunity. In fact, CTL-mediated killing of DCs is considered to be a significant mechanism for modulating immune responses while protecting the host from autoimmune pathologies^55,56. Other work has established that CD40 stimulation of DCs prolongs their survival by a variety of mechanisms, including upregulation of the anti-apoptotic protein bcl-XL and the granzyme B inhibitor, Spi-6^57,58. The effects of iCD40 relative to CD40L on DC survival were compared in an in vitro serum-starvation culture assay (FIG. 11E).

Molecule	IL12-p70 induced by TLR ligand in iCD40-DCs [2]	Time of peak IL-12p70/p40 synthesis [3] [h]	further results
monophosphoryl lipid A [MPL]	synergized with CD40 signaling	–	IFN-gamma production in CD4+ T cells [1]: not induced
Lipopolysaccharide [LPS]	synergized with CD40 signaling	8	Protection against GM-CSF deprivation-mediated DC death [4]: protect against GM-CSF deprivation-mediated DC death; SOCS1 induction [5]: up-regulated SOCS1 expression
FSL-1	only low levels	–	–
CC[C@H](C(=O)N1CCCC[C@H]1C(=O)O[C@H](CCc1ccc(OC)c(OC)c1)c1cccc(OCC(=O)NCC(CNC(=O)COc2cccc([C@@H](CCc3ccc(OC)c(OC)c3)OC(=O)[C@@H]3CCCCN3C(=O)[C@@H](CC)c3cc(OC)c(OC)c(OC)c3)c2)CN(C)C)c1)c1cc(OC)c(OC)c(OC)c1 [AP20187]	–	–	DC longevity [6]: even further enhanced this survival effect
Pam3 CSK4	only low levels	–	–
B1	–	8	–
